{"source": "patent EP1628135A1", "about": "“Method for detecting medically relevant conditions in a solubilized LBC sample” (MTM Laboratories AG, priority 2004, dated 2006)", "key": {"[1]": {"test": "Solubility of proteinase inhibitors in water"}, "p16^INK4a": {"system": "p16^INK4a", "test": "Stabilization of p16INK4a by proteinase inhibitors in mtm lysis medium"}, "[2]": {"test": "Stability of proteinase inhibitors in water"}, "[3]": {"details": "inhibitor at the concentration listed in Table 2"}}, "note": "Like-named read-outs stand apart in the source and are kept apart here. Where a SMILES comes first, the peptide text is derived from it. [ ]: non-standard residue; d: D form. The star is where a group is joined. Sta = CC(C)C[C@H](N)[C@@H](O)CC(=O)O; Isovaleryl = CC(C)CC(=O)*", "data": [{"smiles": "N=C(N)c1ccccc1", "note": "[Benzamidine]", "values": [{"measurement": "Solubility in water", "setting": "[1]", "result": "good"}, {"measurement": "p16^INK4a stabilization in mtm Lysis medium", "setting": "p16^INK4a; [3]", "result": "no"}, {"measurement": "stability in water", "setting": "[2]", "result": "good"}]}, {"smiles": "CC(C)C[C@H](NC(=O)[C@@H](O)[C@H](N)Cc1ccccc1)C(=O)O", "note": "[Bestatin]", "values": [{"measurement": "Solubility in water", "setting": "[1]", "result": "good"}, {"measurement": "p16^INK4a stabilization in mtm Lysis medium", "setting": "p16^INK4a; [3]", "result": "no"}, {"measurement": "stability in water", "setting": "[2]", "result": "good"}]}, {"smiles": "CCCC[C@@H](C=O)NC(=O)[C@H](CC(C)C)NC(=O)OCc1ccccc1", "note": "[Calpeptin]", "values": [{"measurement": "Solubility in water", "setting": "[1]", "result": "good"}, {"measurement": "p16^INK4a stabilization in mtm Lysis medium", "setting": "p16^INK4a; [3]", "result": "no"}, {"measurement": "stability in water", "setting": "[2]", "result": "good"}]}, {"smiles": "CC(C)C[C@H](NC(=O)[C@H]1O[C@@H]1C(=O)O)C(=O)NCCCCN=C(N)N", "note": "[E-64]", "values": [{"measurement": "Solubility in water", "setting": "[1]", "result": "good"}, {"measurement": "p16^INK4a stabilization in mtm Lysis medium", "setting": "p16^INK4a; [3]", "result": "no"}, {"measurement": "stability in water", "setting": "[2]", "result": "good"}]}, {"smiles": "O=C(O)CN(CCN(CC(=O)O)CC(=O)O)CC(=O)O", "note": "[EDTA]", "values": [{"measurement": "p16^INK4a stabilization in mtm Lysis medium", "setting": "p16^INK4a", "result": "no"}]}, {"smiles": "CCOC(=O)[C@H]1O[C@@H]1C(=O)N[C@@H](CC(C)C)C(=O)NCCC(C)C", "note": "[EST]", "values": [{"measurement": "Solubility in water", "setting": "[1]", "result": "bad"}, {"measurement": "p16^INK4a stabilization in mtm Lysis medium", "setting": "p16^INK4a; [3]", "result": "no"}, {"measurement": "stability in water", "setting": "[2]", "result": "poor"}]}, {"smiles": "CC(C)C[C@H](NC(=O)N[C@H](C(=O)N[C@@H](CCC(N)=O)C(=O)N[C@@H](C)C=O)[C@@H]1CCNC(=N)N1)C(=O)O", "note": "[Elastatinal]", "values": [{"measurement": "Solubility in water", "setting": "[1]", "result": "poor"}, {"measurement": "p16^INK4a stabilization in mtm Lysis medium", "setting": "p16^INK4a; [3]", "result": "no"}, {"measurement": "stability in water", "setting": "[2]", "result": "good"}]}, {"smiles": "CC(=O)N[C@@H](CC(C)C)C(=O)N[C@@H](CC(C)C)C(=O)N[C@H](C=O)CCCNC(=N)N", "note": "[Leupeptin]", "values": [{"measurement": "Solubility in water", "setting": "[1]", "result": "good"}, {"measurement": "p16^INK4a stabilization in mtm Lysis medium", "setting": "p16^INK4a; [3]", "result": "no"}, {"measurement": "stability in water", "setting": "[2]", "result": "good"}]}, {"smiles": "CCOC(=O)[C@@H]1O[C@H]1C(=O)NC(CC(C)C)C(=O)N1CCN(Cc2ccc(OC)c(OC)c2OC)CC1.CCOC(=O)[C@@H]1O[C@H]1C(=O)NC(CC(C)C)C(=O)N1CCN(Cc2ccc(OC)c(OC)c2OC)CC1.O=S(=O)(O)O", "note": "(stereo partly shown) [NCO-700]", "values": [{"measurement": "Solubility in water", "setting": "[1]", "result": "poor"}, {"measurement": "p16^INK4a stabilization in mtm Lysis medium", "setting": "p16^INK4a; [3]", "result": "no"}, {"measurement": "stability in water", "setting": "[2]", "result": "poor"}]}, {"smiles": "O=S(=O)(F)Cc1ccccc1", "note": "[PMSF]", "values": [{"measurement": "p16^INK4a stabilization in mtm Lysis medium", "setting": "p16^INK4a; [3]", "result": "yes"}]}, {"smiles": "NCCc1ccc(S(=O)(=O)F)cc1", "note": "[Pefabloc= AEBSF, AEBSF]", "values": [{"measurement": "p16^INK4a stabilization in mtm Lysis medium", "setting": "p16^INK4a; [3]", "result": "yes"}]}, {"smiles": "CC(C)CC(=O)N[C@H](C(=O)N[C@H](C(=O)N[C@@H](CC(C)C)[C@@H](O)CC(=O)N[C@@H](C)C(=O)N[C@@H](CC(C)C)[C@@H](O)CC(=O)O)C(C)C)C(C)C", "note": "[Pepstatin A] (Isovaleryl-VV[Sta]A[Sta]-OH)", "values": [{"measurement": "p16^INK4a stabilization in mtm Lysis medium", "setting": "p16^INK4a; [3]", "result": "no"}]}, {"smiles": "c1cnc2c(c1)ccc1cccnc12", "note": "[o-Phenanthroline]", "values": [{"measurement": "Solubility in water", "setting": "[1]", "result": "bad"}, {"measurement": "p16^INK4a stabilization in mtm Lysis medium", "setting": "p16^INK4a; [3]", "result": "no"}, {"measurement": "stability in water", "setting": "[2]", "result": "poor"}]}]}
